In patent US11666589B2, “Pivarubicin and benzarubicin compositions” (Paradox Pharmaceuticals, Inc., priority 2020, dated 2023):
Like-named read-outs stand apart in the source and are kept apart here.

Experiments:
MDA-MB-231 cells = assay: Secondary tumorsphere formation; type: cell-based, human; settings: 2.5 μM, up to 7 days
Procedure: either vehicle, pivarubicin (NV), or doxorubicin (DOX), and cultured for up to 7 days prior to obtaining the digital images shown in FIG. 6C (vehicle only), FIG. 6D (2.5 uM PIV), and FIG. 6E (2.5 uM DOX). The bar graph in FIG. 6F represents the mean number of tumorspheres greater than […] in diameter/well (n>3).

CEM/VLB-100 = assay: Drug resistance of P-glycoprotein overexpressing CEM/VLB-100 cells; type: cell-based, human; settings: CEM/VLB-100 versus CCRF-CEM
Procedure: Pivarubicin used for TNBC studies was synthesized by Dr. John Rimoldi (Univ. of Mississippi) using the previously described protocol. Doxorubicin HCl, rottlerin and all antibodies were purchased from Sigma-Aldrich (St. Louis, Mo.). For in vitro experiments, doxorubicin and pivarubicin were dissolved in DMSO. The final maximum DMSO concentration used for in vitro drug treatments (1% for 72 hours) was not cytotoxic. IL-3-dependent 32D.3 murine myeloid cells, CCRF-CEM human lymphoblastic leukemia cells and multidrug-resistant variants (generous gift of Dr. William T. Beck, St. Jude Children's Research Hospital, Memphis, Tenn.), 293 embryonic human kidney cells and HL-60 human acute myeloid leukemia cells transfected with Bcr-Abl, Bcl-XL or empty expression vectors (generous gift of Dr. Kapil Bhalla, Univ. of Miami) were maintained as previously described. K562 human chronic myelogenous leukemia and LNCaP human prostate cancer cells were purchased from ATCC (Manassas, Va.) and maintained as described by the vendor. LNCaP/Bcl-2 cells were the generous gift of Dr. Ralph Buttyan (Columbia Univ.). Luminescent MDA-MB-231-LM2 (LM-2; metastatic lung subpopulation isolated from human TNBC MDA-MB-231 cells transduced with eIF1a-Luc2-puro lentivirus) were generously provided by Dr. Yibin Kang, Princeton Univ.) and maintained in culture as previously described. […]

SUM159 cells = assay: MTT cytotoxicity, TNBC monolayer SUM159; type: cell-based; settings: SUM159, 48 h
Procedure: Based upon the ability of pivarubicin to circumvent multiple mechanisms of resistance against doxorubicin, we then examined the efficacy of pivarubicin against TNBC in comparison to doxorubicin, using the following procedure, using two basal TNBC cell lines. MDA-MB-231 cells and SUM-159 cells were maintained under adherent monolayer growth conditions. Upon reaching 50% confluency, cells were treated for 48 h with the dose range of doxorubicin or pivarubicin as indicated in FIGS. 6A and 6B. Cell viability was corrected for death observed in vehicle-only-treated cells (<1% ethanol final well concentration).

LM2 tumors = assay: Orthotopic xenograft of luminescent MDA-MB-231 (LM2) cells in mammary glands
Procedure: Monolayer LM2 cells were trypsinized and resuspended in DMEM media containing 10% FBS and 1× antibiotic/antimitotic. Cell concentration was adjusted to yield 2.5 […] for each 10 uL injection in PBS. After preparation for injection, cells were kept on ice at all times. Cells were surgically implanted into the left and right inguinal mammary glands of 4-week-old female NSG mice (NOD/SCID IL2Rγ−/−; Jackson Laboratory [Bar Harbor Me.] #5557) bred in-house. Mice were anesthetized with 1.2% avertin via intraperitoneal (i.p.) injection prior to surgery. Mice were also injected subcutaneously between shoulder blades with rimadyl for pain relief on day of surgery and on day following surgery. Primary tumor growth prior to and during treatment was monitored initially by manual palpation for tumor appearance, then twice weekly using digital calipers. Tumor volume was calculated by the formula: Volume=(Width2×Length)/2. When tumors attained a volume of approximately […], cohorts of 10 randomized drug-naïve, female, NSG mice (8±1 weeks old, 23±2 g) were administered the maximum tolerated dose (MTD) of pivarubicin, doxorubicin or the equivalent volume of vehicle (70% sterile saline, 15% ethanol, 15% Cremophor EL) as a bolus i.p. injection in parallel experiments. Tumor volumes were measured in a blinded manner.
Mice were imaged using Xenogen In Vivo Imaging System® Lumina from Perkin Elmer (Waltham Mass.). Stock D-Luciferin, Firefly, potassium salt (Perkin Elmer, 122799) was prepared in DPBS at a concentration of 30 mg/mL and sterile filtered with 0.2 micrometer syringe filter. Luciferin was further diluted to 15 mg/mL in DPBS prior to injection. Mice were injected i.p. with 200 uL of luciferin. Primary tumors were imaged by placing mice in dorsal recumbency using luminescent setting of auto exposure, field of view D with resolution setting of 4 (medium binning), 10 minutes after injection with luciferin, approximately 5 minutes following anesthetization with isoflurane. Data are reported as total flux in photons per second (p/s) using Living Image software.
In a study of doxorubicin treatment of TNBC-bearing NSG mice, LM2 cells were implanted into the 4R and 4L cleared mammary fat pads of female NSG mice and permitted to proliferate for 26 days until a tumor volume range of 125-190 mm3 was reached based on caliper measurements. Doxorubicin was administered IP rapid push in 70% sterile saline, 15% EtOH, 15% Cremophor EL at 14-day intervals, with tumor volumes measured at indicated days post-implantation, as summarized in FIG. 7A. […] At endpoint, mice were euthanized, and primary tumors resected for volume (FIG. 7B), weight (FIG. 7C), and luminescence (FIG. 7D) measurements. Endpoint results are expressed as the mean±standard error of 10 mice per group. Statistical significance was determined by the Wilcoxon rank-sum test.
Pivarubicin treatment of TNBC-bearing NSG mice was also studied. LM2 cells were implanted into the 4R and 4L cleared mammary fat pads of female NSG mice and permitted to proliferate for 22-24 days until a tumor volume range of 125-190 mm3 was reached based on caliper measurements. Pivarubicin was administered IP rapid push in 70% sterile saline, 15% EtOH, 15% Cremophor EL as either a single dose at 26.6 mg/kg (FIG. 8A) or in two 16.5-mg/kg doses at a 14-day interval (FIG. 8B) with tumor volumes measured at indicated days post-implantation. […] At endpoint, mice were euthanized, and primary tumors resected for volume (FIG. 8C) and weight (FIG. 8D) measurements. Results are expressed as the mean±standard error of 10 mice per group. Statistical significance was determined by the Wilcoxon rank-sum test.

[1] = Maximum tolerated dose in non-tumor-bearing mice; type: in vivo, female NSG mice
Procedure: The MTD for pivarubicin was 26.6 mg/kg, producing a reversible mean 20% weight loss after two doses, with a third dose producing an irreversible mean weight loss >20%.

[2] = two doses of 16.5 mg/kg i.p. at two-week interval, endpoint

Compound | inhibition of secondary tumorsphere formation (MDA-MB-231 cells) | resistance (CEM/VLB-100) [fold] | IC50 (SUM159 cells) [µM] | IC90 (SUM159 cells) [µM] | tumor growth compared with vehicle treatment (volume, weight) (LM2 tumors; 1.4 mg/kg, then 1.6 mg/kg 14 days later, i.p.) | weight loss in tumor-bearing mice (LM2 tumors; after 1.4 mg/kg and 1.6 mg/kg) | reversible mean weight loss ([1]; 1.4 mg/kg after 3 prior escalating doses) [%] | irreversible mean weight loss ([1]; 1.8 mg/kg, independent dosing experiment) [%] | MTD ([1]; i.p. once every 2 weeks) [mg/kg] | IC50 (SUM159 cells; MTT, read-out: IC50) [µM] | IC90 (SUM159 cells; MTT, read-out: IC90) [µM] | mean decrease in tumor volume compared with mean volume prior to drug administration (LM2 tumors; single MTD dose (26.6 mg/kg i.p.)) [%] | mean weight loss (poorly reversible) (LM2 tumors; single MTD, tumor-bearing NSG mice) [%] | decrease in tumor volume compared with vehicle treatment (LM2 tumors; [2]) [%] | decrease in tumor weight compared with vehicle treatment (LM2 tumors; [2]) [%] | reversible mean weight loss ([1]; 26.6 mg/kg, after two doses) [%] | irreversible mean weight loss ([1]; 26.6 mg/kg, third dose) [%]
COc1cccc2c1C(=O)c1c(O)c3c(c(O)c1C2=O)C[C@@](O)(C(=O)CO)C[C@@H]3O[C@H]1C[C@H](N)[C@H](O)[C@H](C)O1 [Doxorubicin, reference compound] | partial inhibition | 73 | 4 | > 20 | failed to exhibit reduced growth | excessive and irreversible weight loss | 22 | > 25 | 1.4 |  |  |  |  |  |  |  | 
COc1cccc2c1C(=O)c1c(O)c3c(c(O)c1C2=O)C[C@@](O)(C(=O)COC(=O)C(C)(C)C)C[C@@H]3O[C@H]1C[C@H](NCc2ccccc2)[C@H](O)[C@H](C)O1 [Pivarubicin, N-Benzyladriamycin-14-pivalate] | complete inhibition | 3 |  |  |  |  |  |  |  | 1.5 | 1.7 | 40 | 20 | 50 | 40 | 20 | > 20
